Assay: recombinant barcode read abundance after kanamycin selection (control-corrected) (log10(CPM+1)); higher = more efficient recombination; sequences stand for … in AGTGCAGAGAAAATCGGCCAGTTTTCTCTGCCTGCAGTCCGCATGCCGT…AGATTTATGCAGCGGACTGCCTTTCTCCCAAAGTGATAAACCGGACAGTATCATGGACCGGTTTTCCCGGTAATCCGTATTTGCAAGGTTGGTTTCACT; site = the 11-nt target
How it was run: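 The screen was pooled in E. coli and paired targets with IS621 bridge RNA target-binding loops. Recombination efficiency is taken from barcode counts per million at recombinant junctions, averaged and adjusted against the control. Values, in the form log10(CPM+1), come from duplicate plating on chloramphenicol/ampicillin LB agar or on chloramphenicol/ampicillin/kanamycin with 0.1 mM IPTG.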
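Note: IS621 recombinase and bridge RNA in Escherichia coli cells.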

CTGCACCCTTGGGTTCTAACCTGTTGCCT (site CTGCACCCTAG)
recombinant barcode read abundance (log10): 1.57

CTGCTGTCTTGGGTTCTAACCTGTTGCCA (site CTGATGTCTTG)
recombinant barcode read abundance (log10): 0.154

CTGCTGTCTTGGGTTCTAACCTGTTGCCA (site CTGCTGTCTTG)
recombinant barcode read abundance (log10): 0.095

CTGCTGTCTTGGGTTCTAACCTGTTGCCA (site CTGGTGTCTTG)
recombinant barcode read abundance (log10): 0.402

CTGCTGTCTTGGGTTCTAACCTGTTGCCA (site CTGTTGTCTTG)
recombinant barcode read abundance (log10): 0.0953

CTGGATCCTTGGGTTCTAACCTGTTGCCT (site CTCGACCCTAG)
recombinant barcode read abundance (log10): 0.0729

CTGGATCCTTGGGTTCTAACCTGTTGCCT (site CTGGATCCTAG)
recombinant barcode read abundance (log10): 2.25

CTGGGCTCTTGGGTTCTAACCTGTTGCCA (site CTGGGCTCTTG)
recombinant barcode read abundance (log10): 1.14

CTGGGCTCTTGGGTTCTAACCTGTTGCCA (site GTGGGCTCTAG)
recombinant barcode read abundance (log10): 0.282

CTGGGTTCTTGGGTTCTAACCTGTTGCCT (site CAGGGTTCTAG)
recombinant barcode read abundance (log10): 0.0887

CTGGGTTCTTGGGTTCTAACCTGTTGCCT (site CCGGGTTCTAG)
recombinant barcode read abundance (log10): 0.138

CTGGGTTCTTGGGTTCTAACCTGTTGCCT (site CGGGGTTCTAG)
recombinant barcode read abundance (log10): 0.312

CTGGGTTCTTGGGTTCTAACCTGTTGCCT (site CTGGGTTCTAG)
recombinant barcode read abundance (log10): 0.17

CTGGTCACTTGGGTTCTAACCTGTTGCGG (site CTAGACACTCC)
recombinant barcode read abundance (log10): 0.11

CTGGTCACTTGGGTTCTAACCTGTTGCGG (site CTGGTCACTCC)
recombinant barcode read abundance (log10): 2.74

CTGGTCCCTTGGGTTCTAACCTGTTGCGG (site CTGATCCCTCC)
recombinant barcode read abundance (log10): 0.983

CTGGTCCCTTGGGTTCTAACCTGTTGCGG (site CTGCTCCCTCC)
recombinant barcode read abundance (log10): 0.0151

CTGGTCCCTTGGGTTCTAACCTGTTGCGG (site CTGGTCCCTCC)
recombinant barcode read abundance (log10): 2.72

CTGGTCCCTTGGGTTCTAACCTGTTGCGG (site CTGTTCCCTCC)
recombinant barcode read abundance (log10): 0.151

CTGTCTCCTTGGGTTCTAACCTGTTGCGT (site AGAAGCACTTG)
recombinant barcode read abundance (log10): 0.11

CTGTCTCCTTGGGTTCTAACCTGTTGCGT (site CTGTCTCCTAC)
recombinant barcode read abundance (log10): 0.833

CTGTGGACTTGGGTTCTAACCTGTTGCAG (site CTCTGGACTGT)
recombinant barcode read abundance (log10): 0

CTGTGGACTTGGGTTCTAACCTGTTGCAG (site CTGTGGACTCT)
recombinant barcode read abundance (log10): 1.13

CTGTTATCTTGGGTTCTAACCTGTTGCCT (site CTATTATCTAG)
recombinant barcode read abundance (log10): 0.127

CTGTTATCTTGGGTTCTAACCTGTTGCCT (site CTGTTATCTAG)
recombinant barcode read abundance (log10): 0.237

CTTAAATCTTGGGTTCTAACCTGTTGCCT (site CTTAAATCTAG)
recombinant barcode read abundance (log10): 0.0558

CTTAAATCTTGGGTTCTAACCTGTTGCCT (site CTTCAATCTAG)
recombinant barcode read abundance (log10): 0.0867

CTTAAATCTTGGGTTCTAACCTGTTGCCT (site CTTGAATCTAG)
recombinant barcode read abundance (log10): 0.24

CTTAAATCTTGGGTTCTAACCTGTTGCCT (site CTTTAATCTAG)
recombinant barcode read abundance (log10): 0.165

CTTACCGCTTGGGTTCTAACCTGTTGCCT (site CTTACAGCTAG)
recombinant barcode read abundance (log10): 0.137

CTTACCGCTTGGGTTCTAACCTGTTGCCT (site CTTACCGCTAG)
recombinant barcode read abundance (log10): 1.19

CTTACCGCTTGGGTTCTAACCTGTTGCCT (site CTTACGGCTAG)
recombinant barcode read abundance (log10): 0.235

CTTACCGCTTGGGTTCTAACCTGTTGCCT (site CTTACTGCTAG)
recombinant barcode read abundance (log10): 0.273

CTTAGCTCTTGGGTTCTAACCTGTTGCCT (site CGTAGGTCTAG)
recombinant barcode read abundance (log10): 0.009

CTTAGCTCTTGGGTTCTAACCTGTTGCCT (site CTTAGCTCTAG)
recombinant barcode read abundance (log10): 1.15

CTTAGGACTTGGGTTCTAACCTGTTGCCC (site CTTAGGACTAG)
recombinant barcode read abundance (log10): 0.374

CTTAGGACTTGGGTTCTAACCTGTTGCCC (site CTTAGGACTCG)
recombinant barcode read abundance (log10): 0.283

CTTAGGACTTGGGTTCTAACCTGTTGCCC (site CTTAGGACTGG)
recombinant barcode read abundance (log10): 0.404

CTTAGGACTTGGGTTCTAACCTGTTGCCC (site CTTAGGACTTG)
recombinant barcode read abundance (log10): 0.00992

CTTCACGCTTGGGTTCTAACCTGTTGCCT (site CTTCACACTAT)
recombinant barcode read abundance (log10): 0.177

CTTCACGCTTGGGTTCTAACCTGTTGCCT (site CTTCACGCTAG)
recombinant barcode read abundance (log10): 1.21

CTTCAGCCTTGGGTTCTAACCTGTTGCCT (site CTTCAACCTAG)
recombinant barcode read abundance (log10): 0.612

CTTCAGCCTTGGGTTCTAACCTGTTGCCT (site CTTCACCCTAG)
recombinant barcode read abundance (log10): 0.259

CTTCAGCCTTGGGTTCTAACCTGTTGCCT (site CTTCAGCCTAG)
recombinant barcode read abundance (log10): 0.789

CTTCAGCCTTGGGTTCTAACCTGTTGCCT (site CTTCATCCTAG)
recombinant barcode read abundance (log10): 0

CTTCAGGCTTGGGTTCTAACCTGTTGCCT (site CTTCAGGCTAG)
recombinant barcode read abundance (log10): 0.594

CTTCAGGCTTGGGTTCTAACCTGTTGCCT (site CTTGAGACTAG)
recombinant barcode read abundance (log10): 0.0551

CTTCCTTCTTGGGTTCTAACCTGTTGCCT (site CTCCCTTCTAA)
recombinant barcode read abundance (log10): 0.128

CTTCCTTCTTGGGTTCTAACCTGTTGCCT (site CTTCCTTCTAG)
recombinant barcode read abundance (log10): 0.543

CTTCGAGCTTGGGTTCTAACCTGTTGCCG (site CTTCGAGCTCA)
recombinant barcode read abundance (log10): 0.112

CTTCGAGCTTGGGTTCTAACCTGTTGCCG (site CTTCGAGCTCC)
recombinant barcode read abundance (log10): 0.0907

CTTCGAGCTTGGGTTCTAACCTGTTGCCG (site CTTCGAGCTCG)
recombinant barcode read abundance (log10): 0.873

CTTCGAGCTTGGGTTCTAACCTGTTGCCG (site CTTCGAGCTCT)
recombinant barcode read abundance (log10): 0.138

CTTGAGCCTTGGGTTCTAACCTGTTGCGT (site CTTGAGCCTAC)
recombinant barcode read abundance (log10): 2.87

CTTGAGCCTTGGGTTCTAACCTGTTGCGT (site GTTGAGTCTAC)
recombinant barcode read abundance (log10): 0.0339

CTTGGGCCTTGGGTTCTAACCTGTTGCGG (site CTTGGGCCTCC)
recombinant barcode read abundance (log10): 2.67

CTTGGGCCTTGGGTTCTAACCTGTTGCGG (site GTTGGGGCTCC)
recombinant barcode read abundance (log10): 0.0414

CTTGGGTCTTGGGTTCTAACCTGTTGCCT (site CTTGGGTCTAG)
recombinant barcode read abundance (log10): 0.998

CTTGGGTCTTGGGTTCTAACCTGTTGCCT (site CTTGGTTCTAG)
recombinant barcode read abundance (log10): 0.122

CTTTGTACTTGGGTTCTAACCTGTTGCCT (site CCTTGTACTAG)
recombinant barcode read abundance (log10): 0.265

CTTTGTACTTGGGTTCTAACCTGTTGCCT (site CTTTGTACTAG)
recombinant barcode read abundance (log10): 0.419

GAAAACTCTTGGGTTCTAACCTGTTGCCT (site AGGTCTACTCC)
recombinant barcode read abundance (log10): 0.104

GAAAACTCTTGGGTTCTAACCTGTTGCCT (site GAAAACTCTAG)
recombinant barcode read abundance (log10): 1.11

GAAAAGTCTTGGGTTCTAACCTGTTGCTG (site CTCGCTCCTTG)
recombinant barcode read abundance (log10): 0.185

GAAAAGTCTTGGGTTCTAACCTGTTGCTG (site GAAAAGTCTCA)
recombinant barcode read abundance (log10): 1.28

GAAAATCCTTGGGTTCTAACCTGTTGCCT (site GAAAATCCTAG)
recombinant barcode read abundance (log10): 0.304

GAAAATCCTTGGGTTCTAACCTGTTGCCT (site GAAACTCCTAG)
recombinant barcode read abundance (log10): 0.0115

GAAAATCCTTGGGTTCTAACCTGTTGCCT (site GAAAGTCCTAG)
recombinant barcode read abundance (log10): 0.0177

GAAAATCCTTGGGTTCTAACCTGTTGCCT (site GAAATTCCTAG)
recombinant barcode read abundance (log10): 0.297

GAAACGGCTTGGGTTCTAACCTGTTGCCT (site GAAAAGGCTAG)
recombinant barcode read abundance (log10): 0.0884

GAAACGGCTTGGGTTCTAACCTGTTGCCT (site GAAACGGCTAG)
recombinant barcode read abundance (log10): 0.091

GAAACGGCTTGGGTTCTAACCTGTTGCCT (site GAAAGGGCTAG)
recombinant barcode read abundance (log10): 0.0962

GAAACGGCTTGGGTTCTAACCTGTTGCCT (site GAAATGGCTAG)
recombinant barcode read abundance (log10): 0.323

GAAAGTTCTTGGGTTCTAACCTGTTGCCT (site GAAAGTTCTAG)
recombinant barcode read abundance (log10): 1.15

GAAAGTTCTTGGGTTCTAACCTGTTGCCT (site GCAAGTTCTAG)
recombinant barcode read abundance (log10): 0.0711

GAAAGTTCTTGGGTTCTAACCTGTTGCCT (site GGAAGTTCTAG)
recombinant barcode read abundance (log10): 0.109

GAAAGTTCTTGGGTTCTAACCTGTTGCCT (site GTAAGTTCTAG)
recombinant barcode read abundance (log10): 0.153

GAAATGGCTTGGGTTCTAACCTGTTGCCT (site GAAAAGGCTAG)
recombinant barcode read abundance (log10): 0.0553

GAAATGGCTTGGGTTCTAACCTGTTGCCT (site GAAACGGCTAG)
recombinant barcode read abundance (log10): 0.237

GAAATGGCTTGGGTTCTAACCTGTTGCCT (site GAAAGGGCTAG)
recombinant barcode read abundance (log10): 0.108

GAAATGGCTTGGGTTCTAACCTGTTGCCT (site GAAATGGCTAG)
recombinant barcode read abundance (log10): 0.309

GAACACACTTGGGTTCTAACCTGTTGCCG (site GAACACACTCG)
recombinant barcode read abundance (log10): 1.56

GAACACACTTGGGTTCTAACCTGTTGCCG (site GCACACACTCA)
recombinant barcode read abundance (log10): 0.794

GAACACTCTTGGGTTCTAACCTGTTGCTG (site GAACACTCTCA)
recombinant barcode read abundance (log10): 2.09

GAACACTCTTGGGTTCTAACCTGTTGCTG (site TAACACTCTAA)
recombinant barcode read abundance (log10): 0.113

GAACCTACTTGGGTTCTAACCTGTTGCCA (site GAACCTACTTG)
recombinant barcode read abundance (log10): 1.16

Source: the supplement of paper PMC11208160
